# Measured values: patent publication US10065950B2, “Substituted thiazoles as HIV integrase inhibitors” (Japan Tobacco Inc., priority 2010, dated 2018)
# Target: HIV-1 pNL4-3 integrase (Human immunodeficiency virus type 1 group M subtype B (isolate NY5) (HIV-1), UniProt P12497)
# Assay: Determination of enzyme (HIV integrase) inhibitory activity
# Format: biochemical
# Details: calculated from inhibition rate (fluorescence)
# How it was run: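 Full-length pNL4-3 integrase from E. coli (0.75 μM stock) reacted 60 min at 37° C with compound and biotinylated donor DNA bound to streptavidin plates, in MOPS buffer with 5 mM MgCl2 and 10% DMSO. Digoxigenin-labelled target DNA (25 nM stock) then added for 20 min; strand transfer read by peroxidase anti-digoxigenin fluorescence (Ex 325/Em 420 nm).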
row,Compound,IC50 [nM]
1,CN(C)C(=O)[C@@]1(C)CN(C2CC2)C(=O)c2c(O)c(=O)c(-c3nnc(Cc4ccc(F)cc4)s3)cn21 [Example 178],20
2,COCCOC[C@H]1CN(C2CCC2)C(=O)c2c(O)c(=O)c(-c3nnc(Cc4ccc(F)cc4F)s3)cn21 [Example 86],9.5
3,COC[C@H]1CN([C@H](C)C(C)C)C(=O)c2c(O)c(=O)c(-c3nnc(Cc4ccc(F)cc4F)s3)cn21 [Example 148],9.8
4,CCC(C)N1C(=O)c2c(O)c(=O)c(-c3nnc(Cc4ccc(F)cc4F)s3)cn2C[C@H]1COC (some centres unmarked) [Example 146],5.9
5,CC(C)N1C(=O)c2c(O)c(=O)c(-c3nnc(Cc4ccc(F)cc4F)s3)cn2CC1CO (centres unmarked) [Example 37],6.3
6,COCCOC[C@H]1CN(CC(C)(C)C)C(=O)c2c(O)c(=O)c(-c3nnc(Cc4ccc(F)cc4)s3)cn21 [Example 123],27
7,CC(C)N1C[C@](C)(C(=O)N2CCC(=O)C2)n2cc(-c3ncc(Cc4ccc(F)cc4)s3)c(=O)c(O)c2C1=O [Example 290],14
8,CC(C)N1C(=O)c2c(O)c(=O)c(-c3nnc(Cc4ccc(F)cc4)s3)cn2C[C@@]1(C)C(=O)N(C)C [Example 315],8.8
9,CC(C)N1CC(C)(C(=O)N2CCCCC2)n2cc(-c3ncc(Cc4ccc(F)cc4)s3)c(=O)c(O)c2C1=O (centres unmarked) [Example 108],18
10,CC(C)NC(=O)C1CN(C(C)C)C(=O)c2c(O)c(=O)c(-c3ncc(Cc4ccc(F)cc4F)s3)cn21 (centres unmarked) [Example 31],8.3
11,COC[C@H]1CN(CC2CC2)C(=O)c2c(O)c(=O)c(-c3nnc(Cc4ccc(F)cc4F)s3)cn21 [Example 117],9.4
12,CC(C)N1C(=O)c2c(O)c(=O)c(-c3nnc(Cc4ccc(F)cc4)s3)cn2C[C@H]1CO [Example 354],8
13,COC[C@@H]1[C@H](C)n2cc(-c3nnc(Cc4ccc(F)cc4)s3)c(=O)c(O)c2C(=O)N1CC1CC1 [Example 257],9.1
14,COC[C@H]1CN(C(C)(C)C)C(=O)c2c(O)c(=O)c(-c3nnc(Cc4ccc(F)cc4F)s3)cn21 [Example 131],13
15,CC[C@H](C)N1C[C@H](COC)n2cc(-c3nnc(Cc4ccc(F)cc4F)s3)c(=O)c(O)c2C1=O [Example 135],12
16,CCNC(=O)[C@]1(C)CN(C(C)C)C(=O)c2c(O)c(=O)c(-c3nnc(Cc4ccc(F)cc4F)s3)cn21 [Example 174],14
17,COC[C@H]1CN(C(C)C)C(=O)c2c(O)c(=O)c(-c3nnc(Cc4ccc(F)cc4F)s3)cn21 [Example 85],7.5
18,CCNC(=O)[C@@]1(C)CN(C(C)C)C(=O)c2c(O)c(=O)c(-c3ncc(Cc4ccc(F)cc4)s3)cn21 [Example 239],16
19,CCC(CC)N1C[C@H](COC)n2cc(-c3nnc(Cc4ccc(F)cc4)s3)c(=O)c(O)c2C1=O [Example 337],17
20,CC(C)NC(=O)CC1CN(C(C)C)C(=O)c2c(O)c(=O)c(-c3ncc(Cc4ccc(F)cc4F)s3)cn21 (centres unmarked) [Example 36],13
21,COCC1CN(C(C)C)C(=O)c2c(O)c(=O)c(-c3nnc(Cc4ccc(F)cc4F)s3)cn21 (centres unmarked) [Example 18],8.2
22,CC(C)N1C(=O)c2c(O)c(=O)c(-c3nnc(Cc4ccc(F)cc4)s3)cn2C[C@H]1CN(C)C(=O)C(C)(C)C [Example 182],9.7
23,COC[C@@H]1Cn2cc(-c3nnc(Cc4ccc(F)cc4F)s3)c(=O)c(O)c2C(=O)N1CC1CC1 [Example 126],7.3
24,CNC(=O)C1(C)CN(C(C)C)C(=O)c2c(O)c(=O)c(-c3ncc(Cc4ccc(F)cc4)s3)cn21 (centres unmarked) [Example 104],15
25,CC(C)N1C(=O)c2c(O)c(=O)c(-c3nnc(Cc4ccc(F)cc4F)s3)cn2CC12CCOCC2 [Example 100],8.1

row,Compound,IC50 [nM]
1,CCN1C(=O)c2c(O)c(=O)c(-c3nnc(Cc4ccc(F)cc4F)s3)cn2C[C@@H]1COCCOC [Example 130],13
2,CC(C)N1C[C@](C)(C(=O)N2CC[C@@H](O)C2)n2cc(-c3nnc(Cc4ccc(F)cc4)s3)c(=O)c(O)c2C1=O [Example 205],13
3,CCN(C)C(=O)[C@]1(C)CN(C)C(=O)c2c(O)c(=O)c(-c3ncc(Cc4ccc(F)cc4)s3)cn21 [Example 265],9.3
4,COC[C@@H]1[C@H](C)n2cc(-c3ncc(Cc4ccc(F)cc4)s3)c(=O)c(O)c2C(=O)N1C(C)C [Example 247],10
5,CCN1C(=O)c2c(O)c(=O)c(-c3ncc(Cc4ccc(F)cc4)s3)cn2C[C@]1(C)C(=O)N1CCCC1 [Example 294],11
6,CCNC(=O)[C@]1(C)CN(C(C)C)C(=O)c2c(O)c(=O)c(-c3ncc(Cc4ccc(F)cc4)s3)cn21 [Example 226],13
7,CCN1C(=O)c2c(O)c(=O)c(-c3ncc(Cc4ccc(F)cc4)s3)cn2[C@@H](C)[C@H]1COC [Example 260],12
8,CNC(=O)[C@@]1(C)CN(C(C)C)C(=O)c2c(O)c(=O)c(-c3nnc(Cc4ccc(F)cc4F)s3)cn21 [Example 191],12
9,CC(C)[C@@H]1Cn2cc(-c3nnc(Cc4ccc(F)cc4)s3)c(=O)c(O)c2C(=O)N1C(C)C [Example 221],8.4
10,CC(C)N1C(=O)c2c(O)c(=O)c(-c3nnc(Cc4ccc(F)cc4F)s3)cn2C[C@H]1CN(C)C(=O)C(C)(C)C [Example 184],6
11,CCOC[C@@H]1Cn2cc(-c3ncc(Cc4ccc(F)cc4)s3)c(=O)c(O)c2C(=O)N1CC [Example 222],6.5
12,CC(C)N1CC(CC(N)=O)n2cc(-c3ncc(Cc4ccc(F)cc4F)s3)c(=O)c(O)c2C1=O (centres unmarked) [Example 35],6.7
13,CCN1C[C@](C)(C(=O)N2CCCC2)n2cc(-c3nnc(Cc4ccc(F)cc4)s3)c(=O)c(O)c2C1=O [Example 200],9.6
14,CCC(C)N1C(=O)c2c(O)c(=O)c(-c3nnc(Cc4ccc(F)cc4F)s3)cn2C[C@H]1COC (some centres unmarked) [Example 145],5.6
15,CCOC[C@H]1CN(C(C)C)C(=O)c2c(O)c(=O)c(-c3ncc(Cc4ccc(F)cc4)s3)cn21 [Example 141],8
16,C[C@H](C1CC1)N1C[C@](C)(C(=O)N2CCC2)n2cc(-c3ncc(Cc4ccc(F)cc4)s3)c(=O)c(O)c2C1=O [Example 280],16
17,O=C1c2c(O)c(=O)c(-c3nnc(Cc4ccc(F)cc4)s3)cn2CC(CO)N1C1CC1 (centres unmarked) [Example 115],12
18,CCNC(=O)[C@@]1(C)CN([C@@H](C)C2CC2)C(=O)c2c(O)c(=O)c(-c3ncc(Cc4ccc(F)cc4)s3)cn21 [Example 276],16
19,CC(C)N1C[C@H](C(C)(C)C)n2cc(-c3nnc(Cc4ccc(F)cc4)s3)c(=O)c(O)c2C1=O [Example 193],11
20,COC[C@H]1CN([C@@H](C)C(C)C)C(=O)c2c(O)c(=O)c(-c3nnc(Cc4ccc(F)cc4F)s3)cn21 [Example 136],11
21,CC(C)N1CC(C)(C(=O)N2CCCC2)n2cc(-c3ncc(Cc4ccc(F)cc4)s3)c(=O)c(O)c2C1=O (centres unmarked) [Example 109],21
22,CCN1C[C@@](C)(C(=O)N(C)C)n2cc(-c3ncc(Cc4ccc(F)cc4)s3)c(=O)c(O)c2C1=O [Example 248],14
23,COCCOC[C@H]1CN(C(C)C)C(=O)c2c(O)c(=O)c(-c3nnc(Cc4ccc(F)c(F)c4)s3)cn21 [Example 155],10
24,COCC1CN(CC(C)C)C(=O)c2c(O)c(=O)c(-c3nnc(Cc4ccc(F)cc4F)s3)cn21 (centres unmarked) [Example 63],8.3
25,COC[C@@H]1Cn2cc(-c3ncc(Cc4ccc(F)cc4F)s3)c(=O)c(O)c2C(=O)N1C(C)C [Example 168],5.8
